Patent publication US8119616B2, “Formulation of quinazoline based EGFR inhibitors containing a zinc binding moiety” (Curis, Inc., priority 2007, dated 2012)
Where two headings read alike, the source gives them in different places.

Key:
HDAC = test: Ac-H4 and Ac-H3 accumulation in MDA-MB-468 breast cancer cell line; assay type: cell-based; settings: FIG. 2
EGFR = EGFR phosphorylation in MDA-MB-468 breast cancer cell line; assay type: cell-based; settings: FIG. 2
Description: Allowed A431 cell growth in a T75 flask using standard tissue culture procedures until cells reach near confluency (˜1.5×10^7) cells; D-MEM, 10% FBS). Under sterile conditions dispensed 100 μl of the cell suspension per well in 96-well microplates (x cells plated per well). Incubated cells and monitor cell density until confluency is achieved with well-to-well consistency; approximately three days. Removed complete media from plate wells by aspiration or manual displacement. Replaced media with 50 μl of pre-warmed serum free media per well and incubated 4 to 16 hours. Made two fold serial dilutions of inhibitor using pre-warmed D-MEM so that the final concentration of inhibitor range from 10 μM to 90 pM. Removed media from A431 cell plate. Added 100 μl of serial diluted inhibitor into cells and incubate 1 to 2 hours. Removed inhibitor from plate wells by aspiration or manual displacement. Added either serum free media for resting cells (mock) or serum free media with 100 ng/ml EGF. Used 100 μl of resting/activation media per well. Allowed incubation at 37° C. for 7.5 minutes. Removed activation or stimulation media manually or by aspiration. Immediately fixed cells with 4% formaldehyde in 1×PBS. […] Determined the ratio of […] protein (700/800) using Odyssey software and plot the results in Graphpad Prism (V4.0a).

[1] = male, CD-1, mouse, in vivo, iv, 9 day
Description: Single dosing MTD in mice • a. CD-1 mice, male, 24-26 gram • b. Dosing at 0, 50, 100, 200, 400 mg/kg, iv infusion 2 min • c. 8 mice per group
(§1) Stock solution is diluted with 30% CAPTISOL before use.

[2] = male, CD-1, mouse, in vivo, ip, 7 days
Description: 7-day-multiple dosing MTD in mice • a. CD-1 mice, male, 24-26 gram • b. Dosing at 0, 50, 100, 200 mg/kg/d ip • c. 6 mice per group • d. Blood and organs will be collected 2 hr after last dosing on Day 7 for hematology
as §1

For `C#Cc1cccc(Nc2ncnc3cc(OC)c(OCCCCCCC(=O)NO)cc23)c1` [Compound 12, 7-(4-(3-ethynylphenylamino)-7-methoxyquinazolin-6-yloxy)-N-hydroxyheptanamide], the “inhibition of histone acetylation compared with SAHA” value (HDAC) was “improvement in inhibition”, the “inhibition of EGFR phosphorylation compared with Erlotinib” value (EGFR) was “improvement in inhibition” and the “dose that did not result in a significant change in body weight” value [1] was “up to 200 mg/kg”. The “dose that did not result in a significant change in body weight” value [2] was “up to 100 mg/kg”.
